Results: patent publication US11655260B2, “Heterocyclic compounds as arginase inhibitors” (Guangdong Newopp Biopharmaceuticals Co., Ltd., priority 2017, dated 2023)
Where a name gives a salt, the structure may show the parent alone.

Molecular target: T1, recombinant human arginase 1 (Homo sapiens, UniProt P05089)
T1 sequence (P05089 1-322): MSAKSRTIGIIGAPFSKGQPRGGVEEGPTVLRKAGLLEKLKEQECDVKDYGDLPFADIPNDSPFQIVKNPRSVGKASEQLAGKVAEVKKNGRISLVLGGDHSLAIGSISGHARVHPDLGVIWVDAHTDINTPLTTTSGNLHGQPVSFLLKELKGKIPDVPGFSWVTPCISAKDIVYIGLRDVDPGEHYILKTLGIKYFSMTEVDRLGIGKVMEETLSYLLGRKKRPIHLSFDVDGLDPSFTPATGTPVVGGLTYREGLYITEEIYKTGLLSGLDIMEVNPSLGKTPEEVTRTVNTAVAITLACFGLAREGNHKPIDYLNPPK
Test: Arginase inhibitory activity test (urea detection), arginase 1
Assay type: biochemical
Settings: recombinant human arginase 1, L-arginine substrate, 37° C. for 120 min, urea measurement; read-out: Arg 1 enzymatic potency
Description: Arginase Inhibitory Activity Test
Urea was used as the standard.

IC50	Compound
1000 to 101000 nM	NC(=O)CNS(=O)(=O)N1C[C@H](CCCB(O)O)[C@](N)(C(=O)O)C1 (racemic) [Example 7, (rac)trans-3-amino-1-(N-(2-amino-2-oxoethyl)sulfamoyl)-4-(3-boronopropyl)pyrrolidine-3-carboxylic Acid, (1:1) 2,2,2-trifluoroacetic Acid Salt]
100 to 1000 nM	C[C@H](N)CNS(=O)(=O)N1C[C@H](CCCB(O)O)[C@](N)(C(=O)O)C1 (racemic) [Example 18, (rac)trans-3-amino-1-(N—((S)-2-aminopropyl)sulfamoyl)-4-(3-boronopropyl)pyrrolidine-3-carboxylic Acid (Diastereomers), 2,2,2-trifluoroacetic Acid Salt (1:2)]
> 101000 nM	N[C@@H]1CCCCC1NS(=O)(=O)N1C[C@H](CCCB(O)O)[C@](N)(C(=O)O)C1 (mixture of isomers) [Example 20, (rac)trans-3-amino-1-(N-((rac)cis-2-aminocyclohexyl)sulfamoyl)-4-(3-boronopropyl)pyrrolidine-3-carboxylic Acid (Diastereomers), 2,2,2-trifluoroacetic Acid Salt (1:2)]

The remaining lines, values behind:

Compound	IC50
CC(C)C(NS(=O)(=O)N1CC(CCCB(O)O)C(N)(C(=O)O)C1)C(=O)O (racemic) [Example 11, (rac)trans-3-amino-4-(3-boronopropyl)-1-(N—((S)-1-carboxy-2-methylpropyl)sulfamoyl)pyrrolidine-3-carboxylic Acid (Diastereomer), (1:1) 2,2,2-trifluoroacetic Acid Salt]	1000 to 101000 nM
CNS(=O)(=O)N1C[C@H](CCCB(O)O)[C@](N)(C(=O)O)C1 (racemic) [Example 2, (rac)trans-3-amino-4-(3-boronopropyl)-1-(N-methylsulfamoyl)pyrrolidine-3-carboxylic acid, (1:1) 2,2,2-trifluoroacetic Acid Salt]	1000 to 101000 nM
CCOC(=O)[C@]1(N)CN(S(=O)(=O)NCCN)C[C@@H]1CCCB(O)O (racemic) [Example 14, (rac)(3-(trans-4-amino-1-(N-(2-aminoethyl)sulfamoyl)-4-(ethoxycarbonyl)pyrrolidin-3-yl)propyl)boronic Acid, (1:2) 2,2,2-trifluoroacetic Acid Salt]	100 to 1000 nM
